According to patent US10441627B2, “Method of treating prader-willi syndrome” (Ferring B.V., priority 2014, dated 2019):

Columns and labels:
[1] = system: human oxytocin (hOT) receptor vs human V2 (hV2) receptor; conditions: ratio of EC50 values; from Table 2 in WO2009/122285; cited from earlier work
[2] = system: subjects with Prader-Willi Syndrome (PWS); experiment: Double-blind, placebo-controlled clinical trial of carbetocin intranasal spray in subjects with PWS; type: in vivo, human; conditions: for Clinical Global Impression, Least-Squares Mean Change Carbetocin vs. Placebo: CGI-I 7-point clinician rating; for HPWSQ-R-C Behavior domain score, Least-Squares Mean Change Carbetocin vs. Placebo / HPWSQ-R-C Drive domain score, Least-Squares Mean Change Carbetocin vs. Placebo / HPWSQ-R-C Severity domain score, Least-Squares Mean Change Carbetocin vs. Placebo / HPWSQ-R-C total score, Least-Squares Mean Change Carbetocin vs. Placebo: clinician rated; for HPWSQ-R total score, Least-Squares Mean Change Carbetocin vs. Placebo / HPWSQ-R Behavior domain score, Least-Squares Mean Change Carbetocin vs. Placebo / HPWSQ-R Drive domain score, Least-Squares Mean Change Carbetocin vs. Placebo / HPWSQ-R Severity domain score, Least-Squares Mean Change Carbetocin vs. Placebo: parent/caregiver rated; for HPWSQ-R total score, Least-Squares Mean Change Carbetocin vs. Placebo: negative = improvement vs placebo
Description: A prospective, double-blind, placebo-controlled, parallel trial in subjects with PWS between 10 and 18 years of age with genetically confirmed diagnosis of PWS and a documented nutritional Phase 3 based on the criteria described in Miller et al, 2011 (Am J Med Genet A, 155A(5):1040-1049) was performed. The trial included a Screening Period, a 14-day Treatment Period, and a Follow-Up Period. Subjects, along with their parent/caregiver, were required to visit the investigational site 4 times over the course of the trial and participate in 2 phone call assessments. The trial schedule is listed below. • Visit 1: Screening Period (Day −7 to Day 0) • Visit 2: Baseline 1st day dosing on site (Day 1) • Visit 3: 2nd day dosing on site (Day 2) • Phone call assessment (Day 8±1) • Visit 4: End-of-Treatment Visit (Day 15) • Follow-up phone call (Day 19±3)
Following appropriate informed consent procedures, subjects underwent screening evaluations to determine eligibility before randomization. After randomization, efficacy measures and other assessments, including physical examination, vital signs, and collection of blood samples for clinical laboratory and pharmacokinetic evaluation, were performed at selected visits. Subjects were closely monitored for adverse events throughout the trial.
Prior to first dosing at the investigational site, parents/caregivers were trained on the proper use of the nasal spray device and procedures for investigational medicinal product (IMP) home delivery. Parents/caregivers were instructed to administer 3 intranasal spray pumps of blinded IMP per nostril 3 times daily before meals within the following intervals:
38 subjects, 10-18 years of age, with genetically confirmed diagnosis of PWS and documented nutritional phase 3 PWS criteria (based on Miller et al, 2011), were randomized. 36 subjects completed the study.
The carbetocin intranasal spray was prepared by dissolving […] in 0.9% sterile sodium chloride solution. Specifically, the preweighed carbetocin powder was reconstituted with the sodium chloride solution and subsequently transferred to a nasal spray device. Each spray pump actuation delivered a 50 μL volume of solution containing 1.6 mg carbetocin. Each dose consisted of 3 spray pump actuations in each nostril to deliver a total of 9.6 mg carbetocin. The daily dose of carbetocin was 28.8 mg.
The primary endpoint measured in this trial was change in the total score from Visit 2 to Visit 4 in Hyperphagia in Prader-Willi Syndrome Questionnaire-Responsiveness (HPWSQ-R), which was completed by the parent/caregiver.
1. Clinical Global Impression-Improvement (CGI-I) after treatment at Visit 4.
2. Change from Visit 2 to Visit 4 for the following measurements: • HPWSQ-R hyperphagia behavior, drive, and severity domain scores. • Hyperphagia in Prader-Willi Syndrome Questionnaire-Responsiveness—completed by the clinician (HPWSQ-R-C) total score. • HPWSQ-R-C hyperphagia behavior, drive, and severity domain scores.
3. Change from Visit 1 to Visit 4 for the following measurements: • Children's Yale-Brown Obsessive Compulsive Scale (CY-BOCS) score. • Food Domain of the Reiss Profile.
The primary endpoint was analyzed using an analysis of covariance model with treatment and site as fixed effects and HPWSQ-R total score at Visit 2 (baseline) as a covariate. The last observation carried forward method was used to carry forward non-missing values of HPWSQ-R total score during the phone call assessment (Day 8±1) to impute missing values of HPWSQ-R total score at Visit 4. The treatment group difference in total score between placebo and carbetocin was calculated by subtracting the mean change from baseline in placebo from that in the carbetocin group. A borderline statistically significant difference at the 10% significant level was achieved if the upper limit of the 90% 1-sided confidence interval for the treatment difference was less than zero. […]

## CC[C@H](C)[C@@H]1NC(=O)[C@H](Cc2ccc(O)cc2)NC(=O)[C@@H](N)CSSC[C@@H](C(=O)N2CCC[C@H]2C(=O)N[C@@H](CC(C)C)C(=O)NCC(N)=O)NC(=O)[C@H](CC(N)=O)NC(=O)[C@H](CCC(N)=O)NC1=O [Oxytocin]
[1]
  hV2/hOT selectivity ratio (EC50 hV2/EC50 hOT): 3

## carbetocin
[2]; Day 8, intranasal 28.8 mg/day
  Clinical Global Impression, Least-Squares Mean Change Carbetocin vs. Placebo: −0.9/0.0162
  HPWSQ-R-C Behavior domain score, Least-Squares Mean Change Carbetocin vs. Placebo: −5.4/0.0017
  HPWSQ-R-C Drive domain score, Least-Squares Mean Change Carbetocin vs. Placebo: −3.4/0.0019
  HPWSQ-R-C Severity domain score, Least-Squares Mean Change Carbetocin vs. Placebo: −1.7/0.0061
  HPWSQ-R-C total score, Least-Squares Mean Change Carbetocin vs. Placebo: −10.2/0.0017
  CY-BOCS, Least-Squares Mean Change Carbetocin vs. Placebo: −2.7/0.0956
  Food Domain Score of Reiss Profile, Least-Squares Mean Change Carbetocin vs. Placebo: −3.0/0.0184
  HPWSQ-R Behavior domain score, Least-Squares Mean Change Carbetocin vs. Placebo: −1.9/0.1153
  HPWSQ-R Drive domain score, Least-Squares Mean Change Carbetocin vs. Placebo: −2.1/0.0625
  HPWSQ-R Severity domain score, Least-Squares Mean Change Carbetocin vs. Placebo: −1.1/0.0572
[2]; Day 8, intranasal 9.6 mg three times daily (28.8 mg/day)
  HPWSQ-R total score, Least-Squares Mean Change Carbetocin vs. Placebo: −5.2/0.0632
[2]; Day 15, intranasal 28.8 mg/day
  Clinical Global Impression, Least-Squares Mean Change Carbetocin vs. Placebo: −0.8/0.0233
  HPWSQ-R-C Behavior domain score, Least-Squares Mean Change Carbetocin vs. Placebo: −4.3/0.0068
  HPWSQ-R-C Drive domain score, Least-Squares Mean Change Carbetocin vs. Placebo: −2.6/0.0340
  HPWSQ-R-C Severity domain score, Least-Squares Mean Change Carbetocin vs. Placebo: −2.2/0.0014
  HPWSQ-R-C total score, Least-Squares Mean Change Carbetocin vs. Placebo: −10.5/0.0014
  CY-BOCS, Least-Squares Mean Change Carbetocin vs. Placebo: −6.2/0.0047
  Food Domain Score of Reiss Profile, Least-Squares Mean Change Carbetocin vs. Placebo: −4.4/0.0132
  HPWSQ-R Behavior domain score, Least-Squares Mean Change Carbetocin vs. Placebo: −2.0/0.1172
  HPWSQ-R Drive domain score, Least-Squares Mean Change Carbetocin vs. Placebo: −1.6/0.1436
  HPWSQ-R Severity domain score, Least-Squares Mean Change Carbetocin vs. Placebo: −1.5/0.0248
  HPWSQ-R total score, Least-Squares Mean Change Carbetocin vs. Placebo: −6.7/0.0290
[2]; Day 15 results, P<0.05
  Improvement over placebo treated patients in HPWSQ-R, HPWSQ-R-C, CGI, CY-BOCS and Food Domain Score of Reiss Profile: statistically significant improvement
[1]
  hV2/hOT selectivity ratio (EC50 hV2/EC50 hOT): 244
